Values joined by “and” are separate entries in the source; they are usually repeats but may differ in a detail not shown here. Equal values may be shown once.
What was measured:
[1] = female rat, oral 10-30 mg/kg; ref Gannon et al. 2016; cited from earlier work
[2] = system: PPAR signaling pathway genes, fetal liver; assay: Fetal liver (GD18) PPAR gene array, fold induction versus control; maternal oral dosing GD14-18; rows per gene in dose order 1, 3, 10, 30, 62.5, 125, 250, 500 mg/kg/d; type: in vivo, Sprague-Dawley rats
Description: A total of three blocks of 15 dams per block were dosed once daily from GD14–18 with either water vehicle (control) or HFPO-DA to evaluate fetal and maternal effects (Figure 1A). The first block of dams was dosed with control, 62.5, 125, 250, or 500mg/kg HFPO-DA ( n=3 dams for each). The second and third blocks of dams were dosed with control, 1, 3, 10, or 30mg/kg HFPO-DA ( n=3 per dose per block). Total sample sizes were n=9 for control, n=6 for 1, 3, 10, 30mg/kg , and n=3 for 62.5, 125, 250, and 500mg/kg HFPO-DA. In the first two blocks, spanning the entire dose range, we evaluated fetal testis testosterone production, fetal testis gene expression, fetal and maternal liver gene expression, fetal body weight, and maternal serum thyroid hormone and lipid concentrations. In the third block, encompassing the lower dose range utilized here, we collected fetal plasma for measuring HFPO-DA concentrations. Across all three blocks we evaluated maternal weight gain during dosing, reproductive output (number of fetuses and resorptions), maternal serum HFPO-DA concentration, and maternal liver weight at necropsy.
For the first two blocks, spanning the full dose range, late gestation (GD18) dams were euthanized by decapitation at ∼2h after the final oral dose [ ∼0830–1000 hours Eastern Standard Time (EST)]. Trunk blood was collected and serum isolated via centrifugation ( 10,000×g for 15 min at 4°C) in vacutainer tubes, transferred to 1.5-mL microcentrifuge tubes and stored at −80°C . Dam liver weight was recorded and a sample of liver tissue was collected into a polypropylene microcentrifuge tube containing 500μL TRIzol Reagent (Invitrogen) on ice. Fetuses were removed and two randomly selected fetuses per litter were weighed. Fetal testes were collected from all male pups with a single testis from the first three males used for determination of ex vivo testosterone production and the remaining testes were homogenized and preserved in TRIzol Reagent for gene expression analysis. The liver was collected from a single, randomly selected fetus per dam/litter for gene expression analysis and transferred to a polypropylene microcentrifuge tube containing 500μL TRIzol Reagent (Invitrogen) on ice. Both dam and fetal liver samples were individually homogenized using a Bullet Blender (Next Advance) with 1-mm zirconium oxide beads, transferred to clean tubes, and stored at −80°C prior to RNA extraction (see below). Ex vivo fetal testis testosterone production was measured as previously reported ([Wilson et al. 2004b]) except the radioimmunoassay (RIA) utilized here was supplied by ALPCO (Catalog No. 72-TESTO-CT2, ALPCO). Briefly, one testis was isolated from each of three separate male fetuses in each litter and incubated in a humidified atmosphere at 37°C for 3 h in 500μL of M-199 media (phenol red–free; Hazelton Biologics, Inc.) supplemented with 10% dextran-coated charcoal-stripped fetal bovine serum (Hyclone Laboratories) in 24-well plates under gentle agitation. After incubation, media were removed and stored in siliconized microcentrifuge tubes at −80°C until RIA analyses, which were performed according to manufacturer specifications.
Gene expression in fetal testes and fetal/maternal livers was assessed using reverse transcriptase real-time PCR of cDNA synthesized from RNA extracted from sample homogenates. RNA extraction was conducted according to TRIzol Reagent manufacturer specifications using chloroform and isopropanol. Following extraction, RNA was purified using the RNeasy Mini Kit (Catalog No. 74104; Qiagen). RNA concentration and purity (260:280 ratio ≥1.8 ) were determined with a NanoDrop 2000 spectrophotometer (Thermo Scientific). For the fetal testes, a 96-well gene array plate was previously custom designed to contain 89 target genes and 3 housekeeping genes, an intra-assay control, a genomic DNA control, a reverse transcriptase control, and a positive PCR control [see Table S1; SABioscience; ([Hannas et al. 2012])]. […]

SMILES: O=C(O)C(F)(OC(F)(F)C(F)(F)C(F)(F)F)C(F)(F)F (centres unmarked) [HFPO-DA, Hexafluoropropylene oxide dimer acid]
- half-life [1]: ~5 h
- Acox3 ([2]; dose order): 1.1 fold and 1.3 fold and 1.2 fold and 1.0 fold
- Acsl3 ([2]; dose order): 1.0 fold and 1.1 fold and 1.2 fold and 1.3 fold and 1.4 fold and 1.5 fold
- Acsl4 ([2]; dose order): 1.0 fold and 1.2 fold and 1.5 fold and 1.6 fold and 1.7 fold
- Acsl5 ([2]; dose order): 0.8 fold and 0.9 fold and 1.1 fold and 1.0 fold
- Apoa1 ([2]; dose order): 1.1 fold and 1.2 fold and 0.9 fold and 1.0 fold and 1.5 fold
- Apoa5 ([2]; dose order): 1.4 fold and 1.3 fold and 1.5 fold and 1.6 fold and 1.0 fold
- Apoc3 ([2]; dose order): 1.0 fold and 1.1 fold and 1.3 fold and 0.9 fold and 1.2 fold and 1.4 fold
- Apoe ([2]; dose order): 1.1 fold and 0.9 fold and 1.0 fold and 1.2 fold
- Aqp7 ([2]; dose order): 1.0 fold and 1.3 fold and 1.5 fold and 1.6 fold and 1.7 fold and 1.8 fold
- Cd36 ([2]; dose order): 0.8 fold and 0.9 fold
- Clu ([2]; dose order): 1.1 fold and 1.4 fold and 1.3 fold and 1.2 fold
- Creb1 ([2]; dose order): 1.0 fold and 1.1 fold and 0.9 fold and 0.8 fold
- Crebbp ([2]; dose order): 1.0 fold and 1.1 fold and 0.9 fold
- Cyp27a1 ([2]; dose order): 1.1 fold and 1.0 fold and 0.9 fold
- Dgat1 ([2]; dose order): 1.1 fold and 1.2 fold and 1.4 fold and 1.5 fold
- Eln ([2]; dose order): 1.6 fold and 1.0 fold and 1.3 fold and 1.1 fold and 1.5 fold and 1.4 fold and 1.2 fold
- Ep300 ([2]; dose order): 1.0 fold and 1.2 fold and 0.9 fold
- Fabp2 ([2]; dose order): 0.9 fold and 1.0 fold and 1.1 fold and 0.7 fold
- Fabp3 ([2]; dose order): 1.0 fold and 1.2 fold and 1.1 fold and 0.8 fold
- Fabp4 ([2]; dose order): 1.4 fold and 1.5 fold and 1.2 fold and 0.9 fold and 1.0 fold
- Fabp5 ([2]; dose order): 1.1 fold and 1.0 fold and 1.3 fold and 1.4 fold and 1.5 fold and 1.8 fold
- Fabp7 ([2]; dose order): 1.0 fold and 1.3 fold and 1.4 fold and 1.8 fold and 1.9 fold
- Fads2 ([2]; dose order): 1.1 fold and 1.2 fold and 1.6 fold and 1.8 fold and 2.0 fold and 2.2 fold and 2.1 fold
- Fgr ([2]; dose order): 0.9 fold and 1.3 fold and 1.0 fold and 1.1 fold and 0.8 fold
- Gk ([2]; dose order): 1.4 fold and 1.9 fold and 1.7 fold and 2.0 fold and 1.0 fold and 1.2 fold
- Hif1a ([2]; dose order): 1.0 fold and 1.1 fold and 1.2 fold
- Hspd1 ([2]; dose order): 1.1 fold and 1.0 fold and 1.2 fold and 1.3 fold
- Ilk ([2]; dose order): 1.0 fold and 1.2 fold and 1.1 fold
- Klf10 ([2]; dose order): 1.0 fold and 1.1 fold and 1.5 fold and 1.7 fold and 1.6 fold and 1.4 fold
- Lpin1 ([2]; dose order): 1.0 fold and 1.2 fold and 0.8 fold and 0.9 fold and 1.3 fold
- Lpl ([2]; dose order): 1.0 fold and 1.1 fold and 1.2 fold and 1.4 fold and 1.3 fold and 1.5 fold
- Med1 ([2]; dose order): 1.0 fold and 1.1 fold and 0.9 fold
- Mmp9 ([2]; dose order): 1.2 fold and 1.5 fold and 1.0 fold and 1.1 fold and 0.9 fold
- Ncoa3 ([2]; dose order): 1.0 fold and 1.3 fold and 0.9 fold
- Ncoa6 ([2]; dose order): 1.0 fold and 1.1 fold and 0.9 fold
- Nr1h3 ([2]; dose order): 1.1 fold and 1.2 fold and 1.0 fold
- Pck2 ([2]; dose order): 0.9 fold and 1.1 fold and 1.0 fold
- Pdpk1 ([2]; dose order): 0.9 fold and 1.1 fold and 0.8 fold and 1.0 fold
- Pltp ([2]; dose order): 1.5 fold and 1.0 fold and 1.4 fold and 1.1 fold
- Ppara ([2]; dose order): 1.1 fold and 1.2 fold and 0.9 fold and 1.4 fold and 1.3 fold
- Ppard ([2]; dose order): 0.9 fold and 1.4 fold and 1.1 fold and 1.0 fold and 1.2 fold
- Ppargc1a ([2]; dose order): 0.9 fold and 1.0 fold and 0.7 fold and 0.6 fold and 0.5 fold
- Ppargc1b ([2]; dose order): 1.1 fold and 1.3 fold and 1.2 fold and 0.9 fold and 1.0 fold
- Pprc1 ([2]; dose order): 1.0 fold and 1.1 fold and 0.9 fold and 1.2 fold
- Pten ([2]; dose order): 0.9 fold and 1.0 fold and 1.1 fold and 0.8 fold
- Rxra ([2]; dose order): 1.0 fold and 1.2 fold and 1.1 fold
- Rxrb ([2]; dose order): 1.0 fold and 1.2 fold and 1.1 fold and 0.9 fold
- Sirt1 ([2]; dose order): 0.9 fold and 1.0 fold and 0.8 fold
- Slc27a1 ([2]; dose order): 1.0 fold and 1.1 fold and 0.9 fold
- Slc27a4 ([2]; dose order): 1.0 fold and 1.2 fold and 0.9 fold
- Slc27a5 ([2]; dose order): 1.2 fold and 1.1 fold and 0.9 fold and 1.0 fold
- Slc27a6 ([2]; dose order): 1.4 fold and 1.1 fold and 1.0 fold and 1.3 fold and 1.7 fold and 1.5 fold
- Smarcd3 ([2]; dose order): 1.2 fold and 1.0 fold and 0.9 fold and 1.1 fold
- Sorbs1 ([2]; dose order): 1.2 fold and 1.5 fold and 1.3 fold and 0.9 fold and 1.1 fold and 1.0 fold
- Tgs1 ([2]; dose order): 0.9 fold and 1.0 fold and 0.8 fold
- Txnip ([2]; dose order): 0.9 fold and 1.1 fold and 1.2 fold
- number of significantly up-regulated PPAR pathway genes ([2]; fetal liver, ANOVA p<0.0001): 28 genes
- dose with up-regulated PPAR pathway gene expression in maternal and fetal livers ([2]; oral GD14-18): ≥ 1 mg/kg

— PMC6768323, “Adverse Maternal, Fetal, and Postnatal Effects of Hexafluoropropylene Oxide Dimer Acid (GenX) from Oral Gestational Exposure in Sprague-Dawley Rats” (Environmental Health Perspectives, 2019)
